From ChEMBL document CHEMBL1153098, “Discovery of 2-arylthieno[3,2-d]pyrimidines containing 8-oxa-3-azabi-cyclo[3.2.1]octane in the 4-position as potent inhibitors of mTOR with selectivity over PI3K” (Bioorg Med Chem Lett, 2010)

What was measured:
[1] = target: Serine/threonine-protein kinase mTOR (Homo sapiens, UniProt P42345); test: Inhibition of mTOR
[2] = Selectivity index, ratio of IC50 for PI3Kalpha to IC50 for mTOR
[3] = system: LNCaP; test: Cytotoxicity against human LNCAP cells; type: functional, cell-based
[4] = target: Phosphatidylinositol 4,5-bisphosphate 3-kinase catalytic subunit alpha isoform (Homo sapiens, UniProt P42336); test: Inhibition of PI3Kalpha
Chain of Phosphatidylinositol 4,5-bisphosphate 3-kinase catalytic subunit alpha isoform (P42336 whole entry, canonical isoform): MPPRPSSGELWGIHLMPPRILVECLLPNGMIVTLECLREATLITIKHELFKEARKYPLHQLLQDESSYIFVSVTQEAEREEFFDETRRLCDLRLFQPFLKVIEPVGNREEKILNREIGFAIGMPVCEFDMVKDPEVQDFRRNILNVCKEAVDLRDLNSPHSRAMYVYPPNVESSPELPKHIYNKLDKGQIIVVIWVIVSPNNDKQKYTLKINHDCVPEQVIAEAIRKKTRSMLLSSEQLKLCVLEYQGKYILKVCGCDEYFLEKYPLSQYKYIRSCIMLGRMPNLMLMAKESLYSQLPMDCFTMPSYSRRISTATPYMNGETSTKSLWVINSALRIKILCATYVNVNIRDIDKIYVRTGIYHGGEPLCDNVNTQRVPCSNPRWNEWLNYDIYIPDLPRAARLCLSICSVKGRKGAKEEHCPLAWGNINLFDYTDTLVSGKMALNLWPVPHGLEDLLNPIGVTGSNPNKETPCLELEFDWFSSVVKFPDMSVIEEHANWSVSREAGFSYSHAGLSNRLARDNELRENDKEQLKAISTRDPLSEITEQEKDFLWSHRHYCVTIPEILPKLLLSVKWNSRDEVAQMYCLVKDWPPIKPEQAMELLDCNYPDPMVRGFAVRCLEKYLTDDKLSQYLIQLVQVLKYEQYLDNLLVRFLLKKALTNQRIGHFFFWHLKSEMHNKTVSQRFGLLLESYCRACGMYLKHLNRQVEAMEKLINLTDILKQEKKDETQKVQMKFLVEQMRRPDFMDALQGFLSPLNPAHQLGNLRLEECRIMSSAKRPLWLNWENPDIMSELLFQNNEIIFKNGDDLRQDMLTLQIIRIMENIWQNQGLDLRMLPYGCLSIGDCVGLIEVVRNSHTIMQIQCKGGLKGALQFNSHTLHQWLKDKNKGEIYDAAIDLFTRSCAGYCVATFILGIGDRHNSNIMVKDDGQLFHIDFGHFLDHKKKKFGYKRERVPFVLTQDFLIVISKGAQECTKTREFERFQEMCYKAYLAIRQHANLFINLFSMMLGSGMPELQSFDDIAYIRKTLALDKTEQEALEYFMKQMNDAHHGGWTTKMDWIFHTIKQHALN

Row | IC50 [1] | Ratio IC50 [2] | IC50 [4] | SMILES | IC50 [3]
1 | 0.057 µM | 4.4 |  | Nc1ncc(-c2nc(N3CC4CCC(C3)O4)c3sccc3n2)cn1 | 1.2 µM
2 | 0.061 µM | 0.14 | 0.0085 µM | Nc1ncc(-c2nc(N3CCOCC3)c3sccc3n2)cn1 | 0.68 µM
3 | 0.0265 µM | 165 |  | CC(=O)Nc1ccc(-c2nc(N3CC4CCC(C3)O4)c3sccc3n2)cc1 | 1.7 µM
4 | 0.049 µM | 0.9 | 0.041 µM | Oc1cccc(-c2nc(N3CCOCC3)c3sccc3n2)c1 | 1.3 µM
5 | 0.0009 µM | 492 |  | CNC(=O)Nc1ccc(-c2nc(N3CC4CCC(C3)O4)c3sccc3n2)cc1 | 0.085 µM
6 | 0.00068 µM | 2010 |  | O=C(Nc1ccc(-c2nc(N3CC4CCC(C3)O4)c3sccc3n2)cc1)NC1CC1 | 0.04 µM
7 | 0.00125 µM |  |  | O=C(Nc1ccccc1)Nc1ccc(-c2nc(N3CC4CCC(C3)O4)c3sccc3n2)cc1 | 
8 |  |  | > 10 µM | Nc1ccc(-c2nc(N3CC4CCC(C3)O4)c3sccc3n2)cc1 | 
9 |  | 33 |  | CNC(=O)Nc1ccc(-c2nc(N3CC4CCC(C3)O4)c3sc(CN4CCN(S(C)(=O)=O)CC4)cc3n2)cc1 | 0.12 µM
10 | 0.00029 µM | 410 |  | O=C(Nc1ccc(-c2nc(N3CC4CCC(C3)O4)c3sccc3n2)cc1)Nc1cccnc1 | 0.027 µM
11 | 0.0007 µM |  |  | CCNC(=O)Nc1ccc(-c2nc(N3CC4CCC(C3)O4)c3sccc3n2)cc1 | 
12 | 0.00034 µM |  |  | O=C(NCCO)Nc1ccc(-c2nc(N3CC4CCC(C3)O4)c3sccc3n2)cc1 | 
13 | 0.001 µM | 176 |  | CS(=O)(=O)N1CCN(Cc2cc3nc(-c4ccc(NC(=O)NC5CC5)cc4)nc(N4CC5CCC(C4)O5)c3s2)CC1 | 0.032 µM

Continued, compound first:

Row | SMILES | IC50 [1] | Ratio IC50 [2] | IC50 [4] | IC50 [3]
14 | Nc1ccc(-c2nc(N3CC4CCC(C3)O4)c3sccc3n2)cn1 | 0.035 µM | 51 |  | 1.25 µM
15 | Oc1cccc(-c2nc(N3CC4CCC(C3)O4)c3sccc3n2)c1 | 0.058 µM |  |  | 
16 | CS(=O)(=O)N1CCN(Cc2cc3nc(-c4ccc(NC(=O)Nc5cccnc5)cc4)nc(N4CC5CCC(C4)O5)c3s2)CC1 | 0.0006 µM |  |  | 
17 | CS(=O)(=O)N1CCN(Cc2cc3nc(-c4ccc(NC(=O)Nc5ccncc5)cc4)nc(N4CC5CCC(C4)O5)c3s2)CC1 |  | 19 | 0.0083 µM | 0.12 µM
18 | CN1CCN(Cc2cc3nc(-c4ccc(NC(=O)NC5CC5)cc4)nc(N4CC5CCC(C4)O5)c3s2)CC1 | 0.016 µM | 56 |  | 0.4 µM
19 | O=C(NCCF)Nc1ccc(-c2nc(N3CC4CCC(C3)O4)c3sccc3n2)cc1 | 0.0007 µM | 1110 |  | 0.087 µM
20 | Oc1ccc(-c2nc(N3CC4CCC(C3)O4)c3sccc3n2)cc1 | 0.032 µM |  |  | 
21 | CNC(=O)Nc1ccc(-c2nc(N3CC4CCC(C3)O4)c3sc(CN4CCN(C)CC4)cc3n2)cc1 | 0.02 µM |  |  | 
22 | CN1CCN(Cc2cc3nc(-c4ccc(NC(=O)Nc5cccnc5)cc4)nc(N4CC5CCC(C4)O5)c3s2)CC1 |  | 31 |  | 0.148 µM
23 | COC(=O)Nc1ccc(-c2nc(N3CC4CCC(C3)O4)c3sccc3n2)cc1 | 0.011 µM | 549 |  | 1.85 µM
24 | O=C(Nc1ccncc1)Nc1ccc(-c2nc(N3CC4CCC(C3)O4)c3sccc3n2)cc1 | 0.00044 µM | 182 |  | 0.01 µM
25 | CN1CCN(Cc2cc3nc(-c4ccc(NC(=O)Nc5ccncc5)cc4)nc(N4CC5CCC(C4)O5)c3s2)CC1 |  | 23 |  | 0.2 µM
26 | c1cc2cc(-c3nc(N4CC5CCC(C4)O5)c4sccc4n3)ccc2[nH]1 |  | 392 |  | 1.35 µM
